In the NIST ThermoML archive (doi:10.1021/je501141e):

Experiment: xn = mol fraction of the nth substance listed
Settings: 100 kPa, Liquid; for viscosity: Concentric cylinders viscometry; for speed of sound: Frequency=200 MHz, Sing-around technique in a fixed-path interferometer; for mass density: Vibrating tube method

CC(CC(C)(C)C)CC(C)(C)CC(C)(C)C (stereo not given) [2,2,4,4,6,8,8-heptamethylnonane] + CC(CC(C)(C)C)CC(C)(C)C
Settings	mass density [kg/m3]	speed of sound [m/s]	viscosity [mPa·s]
293.15 K, x1 = 0.0772	749.05	1211.7	1.43
293.15 K, x1 = 0.1584	752.89	1219.4	1.55
293.15 K, x1 = 0.2439	756.76	1226.7	1.7
293.15 K, x1 = 0.334	760.65	1234.8	1.87
293.15 K, x1 = 0.4293	764.68	1242.9	2.08
293.15 K, x1 = 0.5302	768.56	1251.1	2.29
293.15 K, x1 = 0.6371	772.47	1259.6	2.56
293.15 K, x1 = 0.7506	776.56	1268.2	2.86
293.15 K, x1 = 0.8711	780.52	1276.9	3.25
293.15 K, x1 = 1	–	–	3.71
303.15 K, x1 = 0.0772	741.82	1173	1.2
303.15 K, x1 = 0.1584	745.73	1180.9	1.3
303.15 K, x1 = 0.2439	749.65	1188.4	1.42
303.15 K, x1 = 0.334	753.6	1196.6	1.55
303.15 K, x1 = 0.4293	757.69	1205	1.71
303.15 K, x1 = 0.5302	761.62	1213.3	1.88
303.15 K, x1 = 0.6371	765.59	1221.9	2.08
303.15 K, x1 = 0.7506	769.74	1230.8	2.31
303.15 K, x1 = 0.8711	773.76	1239.6	2.59
303.15 K, x1 = 1	–	–	2.93
313.15 K, x1 = 0.0772	734.56	1135	1.02
313.15 K, x1 = 0.1584	738.53	1143	1.1
313.15 K, x1 = 0.2439	742.51	1150.7	1.2
313.15 K, x1 = 0.334	746.52	1159	1.3
313.15 K, x1 = 0.4293	750.67	1167.6	1.43
313.15 K, x1 = 0.5302	754.66	1176.1	1.56
313.15 K, x1 = 0.6371	758.69	1184.8	1.72
313.15 K, x1 = 0.7506	762.9	1193.9	1.9
313.15 K, x1 = 0.8711	766.98	1202.8	2.12
313.15 K, x1 = 1	–	–	2.37
323.15 K, x1 = 0.0772	727.27	1097.7	0.882
323.15 K, x1 = 0.1584	731.3	1105.9	0.947
323.15 K, x1 = 0.2439	735.34	1113.7	1.03
323.15 K, x1 = 0.334	739.41	1122.2	1.11
323.15 K, x1 = 0.4293	743.63	1131	1.21
323.15 K, x1 = 0.5302	747.69	1139.7	1.32
323.15 K, x1 = 0.6371	751.78	1148.5	1.44
323.15 K, x1 = 0.7506	756.05	1157.7	1.59
323.15 K, x1 = 0.8711	760.19	1166.8	1.76
323.15 K, x1 = 1	–	–	1.95
333.15 K, x1 = 0.0772	719.94	1061.1	0.768
333.15 K, x1 = 0.1584	724.04	1069.5	0.822
333.15 K, x1 = 0.2439	728.14	1077.5	0.889
333.15 K, x1 = 0.334	732.28	1086.1	0.956
333.15 K, x1 = 0.4293	736.56	1095.1	1.04
333.15 K, x1 = 0.5302	740.68	1103.9	1.13
333.15 K, x1 = 0.6371	744.84	1112.9	1.23
333.15 K, x1 = 0.7506	749.18	1122.3	1.34
333.15 K, x1 = 0.8711	753.38	1131.6	1.48
333.15 K, x1 = 1	–	–	1.64
343.15 K, x1 = 0.0772	712.57	1025.2	0.676
343.15 K, x1 = 0.1584	716.73	1033.7	0.721
343.15 K, x1 = 0.2439	720.9	1041.9	0.778
343.15 K, x1 = 0.334	725.11	1050.7	0.834
343.15 K, x1 = 0.4293	729.46	1059.8	0.906
343.15 K, x1 = 0.5302	733.65	1068.8	0.975
343.15 K, x1 = 0.6371	737.87	1077.9	1.06
343.15 K, x1 = 0.7506	742.28	1087.5	1.15
343.15 K, x1 = 0.8711	746.55	1096.9	1.26
343.15 K, x1 = 1	–	–	1.39
353.15 K, x1 = 0.0772	705	–	0.6
353.15 K, x1 = 0.1584	709.3	–	0.638
353.15 K, x1 = 0.2439	713.4	–	0.687
353.15 K, x1 = 0.334	717.7	–	0.734
353.15 K, x1 = 0.4293	722.1	–	0.794
353.15 K, x1 = 0.5302	726.4	–	0.852
353.15 K, x1 = 0.6371	730.8	–	0.923
353.15 K, x1 = 0.7506	735.1	–	0.998
353.15 K, x1 = 0.8711	739.5	–	1.09
353.15 K, x1 = 1	–	–	1.19
363.15 K, x1 = 0.0772	697.5	–	0.538
363.15 K, x1 = 0.1584	701.8	–	0.57
363.15 K, x1 = 0.2439	706.1	–	0.613
363.15 K, x1 = 0.334	710.4	–	0.653
363.15 K, x1 = 0.4293	714.8	–	0.704
363.15 K, x1 = 0.5302	719.2	–	0.753
363.15 K, x1 = 0.6371	723.7	–	0.813
363.15 K, x1 = 0.7506	728.1	–	0.88
363.15 K, x1 = 0.8711	732.5	–	0.954
363.15 K, x1 = 1	–	–	1.04
373.15 K, x1 = 0.0772	689.9	–	0.487
373.15 K, x1 = 0.1584	694.2	–	0.515
373.15 K, x1 = 0.2439	698.6	–	0.553
373.15 K, x1 = 0.334	703.1	–	0.586
373.15 K, x1 = 0.4293	707.5	–	0.63
373.15 K, x1 = 0.5302	712.1	–	0.673
373.15 K, x1 = 0.6371	716.7	–	0.723
373.15 K, x1 = 0.7506	721.1	–	0.78
373.15 K, x1 = 0.8711	725.6	–	0.841
373.15 K, x1 = 1	–	–	0.913
